Results on two compounds are retold here after paper PMC11979947, “Modeling Krebs cycle from liver, heart and hepatoma mitochondria, supported Complex I as target for specific inhibition of cancer cell proliferation” (Frontiers in Oncology, 2025).

The subject of test [1] is H9c2 heart myoblast cells. In words: MTT cell proliferation assay, H9c2. To be noted: read-out: IC50 on proliferation. The format is cell-based, rat. As for the experimental part: (§1) Human cervix cancer HeLa and SiHa, human prostate cancer PC3, human colon cancer colo-205, and rat heart myoblast H9c2 cells (CRL-1446, ATCC, Manassas, VA, USA) were cultured in DMEM medium, while human breast cancer MCF7 cells were cultivated in MEM medium. Human breast epithelial MCF-10A cells (CRL-10317, ATCC, Manassas, VA, USA) were cultivated in F-12/DMEM medium. All media were supplemented with 25 mM glucose, 10% fetal bovine serum (Biowest, Riverside, MO, USA) and 10,000 U streptomycin/penicillin/mL under an atmosphere of 5% CO2 and 95% air at 37°C until 80-90% confluence.
(§2) The cell lines (20 × 10^3 cells/well) were grown in 96-well plates containing Dulbecco’s Modified Eagle’s Medium (DMEM) (Sigma-Aldrich, St Louis, MO, USA) for 24 h. Afterward, the cells were exposed to rotenone (1 nM to 50 µM) or malonate (0.1µM to 100 mM) for 24 h. Drug effects on cell proliferation were determined by using the 3-(4,5-dimethyl-thiazol-2-yl)-2,5-diphenyltetrazolium bromide (MTT) (Sigma-Aldrich, St Louis, MO, USA) assay. Plates were incubated at 37°C for 3 h; after, the medium was discarded, and the formazan crystals were dissolved with 100 µL DMSO. After 5 min incubation at 37°C, the absorbance was measured at λ 595 nm ([34]).
(Formazan colour is commonly taken as a measure of viable cells.)

The next test concerns SiHa cervix cancer cells. In words: MTT cell proliferation assay, SiHa. The format is cell-based. Particulars: Homo sapiens, 24 h, read-out: IC50 on proliferation. As for the experimental part: as §1, §2
In test [2] the test system is PC3 prostate cancer cells. Put plainly: MTT cell proliferation assay, PC3. Particulars: read-out: IC50 on proliferation. It is filed as cell-based, human. On the procedure: as §1, §2
In another test the test system is MCF7 breast cancer cells. Put plainly: MTT cell proliferation assay, MCF7. The format is cell-based, human. Particulars: read-out: IC50 on proliferation. On the procedure:
as §1, §2

Test [3] relates to MCF10A breast non-cancer cells. Put plainly: MTT cell proliferation assay, MCF10A. The format is cell-based, human. To be noted: for IC50: read-out: IC50 on proliferation. On the procedure: as §1, §2
Test [4] has as its system COLO-205 colon cancer cells. In words: MTT cell proliferation assay, COLO-205. The format is cell-based, human. To be noted: read-out: IC50 on proliferation. On the procedure:
as §1, §2

In another test the test system is HeLa cervix cancer cells. In words: MTT cell proliferation assay, HeLa. The format is cell-based, human. To be noted: read-out: IC50 on proliferation. As for the experimental part:
as §1, §2

Structures are written as SMILES. Read-outs that look alike come from different tables or passages of the source. Where only a bound is given, the exact number is not on record here.

For the compound `C=C(C)[C@H]1Cc2c(ccc3c2O[C@@H]2COc4cc(OC)c(OC)cc4[C@@H]2C3=O)O1` [Rotenone, rotenone], the IC50 in test [1] (Rattus norvegicus, H9c2, 24 h) is 0.034 ± 0.01 mM; in the test on SiHa cervix cancer cells, 18 ± 3 µM; in test [2] (Homo sapiens, 24 h) it was 0.013 ± 0.001 mM; in the test on MCF7 breast cancer cells (Homo sapiens, MCF7, 24 h), 0.00015 ± 9e-05 mM; in test [3] (Homo sapiens, MCF-10A, 24 h), greater than 0.05 mM; in test [4] (Homo sapiens, COLO 205, 24 h) it was 0.037 ± 0.009 mM. The IC50 in the test on HeLa cervix cancer cells (Homo sapiens, 24 h) is 0.017 ± 0.005 mM. Moreover, in test [3] (MCF10A, 50 µM, 24 h of treatment), the Effect on proliferation result was “not affected”.

Regarding `O=C(O)CC(=O)O` [Malonate, malonate], the IC50 in test [1] (H9c2, 24 h treatment, MTT) was found to be 25 ± 5 mM; in test [2] (PC3, 24 h treatment, MTT), 40 ± 2 mM; with MCF7 breast cancer cells (MCF7, 24 h treatment, MTT), 41 ± 1 mM; in test [3] (MCF10A, 24 h treatment, MTT), 43 ± 9 mM; in test [4] (COLO-205, 24 h treatment, MTT), 32 ± 3 mM; with HeLa cervix cancer cells (24 h treatment, MTT) it was 27 ± 5 mM.
